According to patent US6462038B1, “Androgen receptor modulator compounds and methods” (Ligand Pharmaceuticals, Inc., priority 1999, dated 2002):
pEC50, pIC50: −log10 of the molar value. Where two headings read alike, the source gives them in different places.

Legend:
[1] = molecular target: T1, hAR (Homo sapiens, UniProt P10275); assay: co-transfection assay, AR antagonist (in presence of DHT), CV-1 cells; type: cell-based; details: for AR Antagonist CV-1 Cells Efficacy (%): maximal inhibition
T1 construct: expressed in transfected cells; host or cells: CV-1 cells (African green monkey kidney fibroblasts)
T1 sequence (P10275 1-920): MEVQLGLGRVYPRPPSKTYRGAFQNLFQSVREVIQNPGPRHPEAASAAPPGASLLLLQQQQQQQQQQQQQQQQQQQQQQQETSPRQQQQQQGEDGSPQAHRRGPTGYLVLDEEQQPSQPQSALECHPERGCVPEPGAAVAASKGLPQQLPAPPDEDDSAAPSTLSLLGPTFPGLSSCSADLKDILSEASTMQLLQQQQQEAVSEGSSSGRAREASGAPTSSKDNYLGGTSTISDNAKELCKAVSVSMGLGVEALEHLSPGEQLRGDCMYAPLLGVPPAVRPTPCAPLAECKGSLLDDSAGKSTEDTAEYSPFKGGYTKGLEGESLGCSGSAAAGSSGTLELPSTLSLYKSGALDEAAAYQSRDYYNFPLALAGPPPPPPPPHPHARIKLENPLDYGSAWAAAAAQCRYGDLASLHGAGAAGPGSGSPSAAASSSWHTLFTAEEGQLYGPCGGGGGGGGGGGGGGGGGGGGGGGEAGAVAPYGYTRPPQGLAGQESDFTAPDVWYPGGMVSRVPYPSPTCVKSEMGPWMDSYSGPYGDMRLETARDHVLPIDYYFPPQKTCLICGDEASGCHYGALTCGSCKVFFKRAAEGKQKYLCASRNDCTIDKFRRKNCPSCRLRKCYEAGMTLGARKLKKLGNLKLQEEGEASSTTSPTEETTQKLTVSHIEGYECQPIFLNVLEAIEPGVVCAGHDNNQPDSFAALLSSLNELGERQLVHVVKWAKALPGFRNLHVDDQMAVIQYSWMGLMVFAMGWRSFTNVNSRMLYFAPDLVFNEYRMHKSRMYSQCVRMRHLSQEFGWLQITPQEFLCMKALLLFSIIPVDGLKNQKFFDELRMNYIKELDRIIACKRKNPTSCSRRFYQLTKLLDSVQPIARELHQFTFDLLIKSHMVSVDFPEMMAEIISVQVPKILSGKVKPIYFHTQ

[2] = molecular target: T1, hAR; assay: co-transfection assay, AR agonist, CV-1 cells; type: cell-based; details: for AR Agonist CV-1 Cells Efficacy (%): relative to maximum LUC production by reference agonist; for EC50: AR Agonist CV-1 Cells Potency (nM)

Row | SMILES | pIC50 [1] | AR Antagonist CV-1 Cells Efficacy (%) ([1]; hAR in CV-1 cells, DHT at EC50) | pEC50 [2] | AR Agonist CV-1 Cells Efficacy (%) ([2]; hAR in CV-1 cells) | pIC50 ([1]; read-out: AR Antagonist CV-1 Cells Potency, hAR in CV-1 cells, DHT at EC50) | EC50 ([2]; hAR in CV-1 cells) [nM] | EC50 [2] [nM]
1 | CC(=O)OCC1COc2cc3[nH]c(=O)cc(C(F)(F)F)c3cc2N1CC(F)(F)F (racemic) [Compound 131, (±)-1,2,3,6-Tetrahydro-2-(acetoxymethyl)-1-(2,2,2-trifluoroethyl)-9-(trifluoromethyl)-7H-[1,4]oxazino[3,2-g]quinolin-7-one] | < 5.00 | na (na = not active (i.e. efficacy of < 20 and potency of > 10,000 nM for the cotransfection assay, and Ki > 1000 nM for the binding assay)) | 7.51 | 46% | – | – | –
2 | Cn1c(=O)cc(C(F)(F)F)c2cc3c(cc21)OCCN3CC(F)(F)F [Compound 109, 1,2,3,6-Tetrahydro-6-methyl-1-(2,2,2-trifluoroethyl)-9-(trifluoromethyl)-7H-[1,4]oxazino[3,2-g]quinolin-7-one] | 7.62 | 57% | < 5.00 | na (na = not active (i.e. efficacy of < 20 and potency of > 10,000 nM for the cotransfection assay, and Ki > 1000 nM for the binding assay)) | – | – | –
3 | O=c1cc(C(F)F)c2cc3c(cc2[nH]1)OCCN3CC(F)(F)F [Compound 108, 9-(Difluoromethyl)-1,2,3,6-tetrahydro-1-(2,2,2-trifluoroethyl)-7H-[1,4]oxazino[3,2-g]quinolin-7-one] | < 5.00 | na (na = not active (i.e. efficacy of < 20 and potency of > 10,000 nM for the cotransfection assay, and Ki > 1000 nM for the binding assay)) | 7.85 | 80% | – | – | –
4 | CC[C@@H]1Oc2cc3[nH]c(=O)cc(C(F)(F)F)c3cc2N(CC(F)(F)F)[C@H]1C (racemic) [Compound 128, (±)-trans-3-Ethyl-1,2,3,6-tetrahydro-2-methyl-1-(2,2,2-trifluoroethyl)-9-(trifluoromethyl)-7H-[1,4]oxazino[3,2-g]quinolin-7-one] | 5.87 | 42% | < 5.00 | na (na = not active (i.e. efficacy of < 20 and potency of > 10,000 nM for the cotransfection assay, and Ki > 1000 nM for the binding assay)) | – | – | –
5 | CC1COc2cc3[nH]c(=O)cc(C(F)(F)F)c3cc2N1CC(F)(F)F (single isomer, unassigned; (-)) [Compound 125, (−)-1,2,3,6-Tetrahydro-2-methyl-1-(2,2,2-trifluoroethyl)-9-(trifluoromethyl)-7H-[1,4]oxazino[3,2-g]quinolin-7-one] | – | na (na = not active (i.e. efficacy of < 20 and potency of > 10,000 nM for the cotransfection assay, and Ki > 1000 nM for the binding assay)) | – | 74% | < 5.00 | 0.7 | –
6 | CC1COc2cc3[nH]c(=O)cc(C(F)(F)F)c3cc2N1CC(F)(F)F (single isomer, unassigned; (+)) [Compound 124, (+)-1,2,3,6-Tetrahydro-2-methyl-1-(2,2,2-trifluoroethyl)-9-(trifluoromethyl)-7H-[1,4]oxazino[3,2-g]quinolin-7-one] | < 5.00 | na (na = not active (i.e. efficacy of < 20 and potency of > 10,000 nM for the cotransfection assay, and Ki > 1000 nM for the binding assay)) | – | 54% | – | 3.6 | –
7 | O=c1[nH]c2cc3c(cc2c(C(F)(F)F)c1Cl)N(CC(F)(F)F)CCO3 [Compound 107, 8-Chloro-1,2,3,6-tetrahydro-1-(2,2,2-trifluoroethyl)-9-(trifluoromethyl)-7H-[1,4]oxazino[3,2-g]quinolin-7-one] | < 5.00 | na (na = not active (i.e. efficacy of < 20 and potency of > 10,000 nM for the cotransfection assay, and Ki > 1000 nM for the binding assay)) | 7.59 | 92% | – | – | –
8 | O=c1cc(C(F)(F)F)c2cc3c(cc2[nH]1)OCCN3Cc1ccccn1 [Compound 122, 1,2,3,6-Tetrahydro-1-(2-pyridylmethyl)-9-(trifluoromethyl)-7H-[1,4]oxazino[3,2-g]quinolin-7-one] | 6.20 | 75% | < 5.00 | na (na = not active (i.e. efficacy of < 20 and potency of > 10,000 nM for the cotransfection assay, and Ki > 1000 nM for the binding assay)) | – | – | –
9 | O=c1[nH]c2cc3c(cc2c(C(F)(F)F)c1F)N(CC(F)(F)F)CCO3 [Compound 106, 8-Fluoro-1,2,3,6-tetrahydro-1-(2,2,2-trifluoroethyl)-9-(trifluoromethyl)-7H-[1,4]oxazino[3,2-g]quinolin-7-one] | < 5.00 | na (na = not active (i.e. efficacy of < 20 and potency of > 10,000 nM for the cotransfection assay, and Ki > 1000 nM for the binding assay)) | 8.40 | 80% | – | – | –
10 | CCC1COc2cc3[nH]c(=O)cc(C(F)(F)F)c3cc2N1CC(F)(F)F (racemic) [Compound 145, (±)-2-Ethyl-1,2,3,6-tetrahydro-1-(2,2,2-trifluoroethyl)-9-(trifluoromethyl)-7H-[1,4]oxazino[3,2-g]quinolin-7-one] | – | 30% | – | 69% | – | – | –
11 | COCC1COc2cc3[nH]c(=O)cc(C(F)(F)F)c3cc2N1CC(F)(F)F (racemic) [Compound 132, (±)-1,2,3,6-Tetrahydro-2-(methoxymethyl)-1-(2,2,2-trifluoroethyl)-9-(trifluoromethyl)-7H-[1,4]oxazino[3,2-g]quinolin-7-one] | < 5.00 | na (na = not active (i.e. efficacy of < 20 and potency of > 10,000 nM for the cotransfection assay, and Ki > 1000 nM for the binding assay)) | – | 72% | – | – | 1.7
12 | O=c1cc(C(F)(F)F)c2cc3c(cc2[nH]1)OCCN3 [Compound 120, 1,2,3,6-Tetrahydro-9-(trifluoromethyl)-7H-[1,4]oxazino[3,2-g]quinolin-7-one] | – | 69% | – | na (na = not active (i.e. efficacy of < 20 and potency of > 10,000 nM for the cotransfection assay, and Ki > 1000 nM for the binding assay)) | – | – | –
13 | CC(C)CN1CCOc2cc3c(cc21)c(C(F)(F)F)cc(=O)n3C [Compound 113, 1,2,3,6-Tetrahydro-1-isobutyl-6-methyl-9-(trifluoromethyl)-7H-[1,4]oxazino[3,2-g]quinolin-7-one] | 7.21 | 78% | < 5.00 | na (na = not active (i.e. efficacy of < 20 and potency of > 10,000 nM for the cotransfection assay, and Ki > 1000 nM for the binding assay)) | – | – | –
14 | FC(F)(F)CN1CCOc2cc3[nH]c(=S)cc(C(F)(F)F)c3cc21 [Compound 110, 1,2,3,6-Tetrahydro-1-(2,2,2-trifluoroethyl)-9-(trifluoromethyl)-7H-[1,4]oxazino[3,2-g]quinolin-7-thione] | < 5.00 | na (na = not active (i.e. efficacy of < 20 and potency of > 10,000 nM for the cotransfection assay, and Ki > 1000 nM for the binding assay)) | 7.36 | 90% | – | – | –
15 | CC[C@H]1Oc2cc3[nH]c(=O)cc(C(F)(F)F)c3cc2N(CC(F)(F)F)[C@H]1C (racemic) [Compound 129, (±)-cis-3-Ethyl-1,2,3,6-tetrahydro-2-methyl-1-(2,2,2-trifluoroethyl)-9-(trifluoromethyl)-7H-[1,4]oxazino[3,2-g]quinolin-7-one] | 7.89 | 76% | 5.87 | 42% | – | – | –
